Measured values taken from ChEMBL document CHEMBL1201862, “PubChem BioAssay data set” (2004).
The source made the active and inactive calls.

Legend:
[1] = molecular target: Potassium voltage-gated channel subfamily KQT member 2 (Rattus norvegicus, UniProt O88943); assay: KCNQ2 channel activators, analog series, SAR follow-up, automated patch clamp, KCNQ2-CHO cells (AID 493113); type: functional
[2] = cytotoxicity toward NIH3T3 fibroblasts, dose response, counter-screen, cell-based, ATP luminescence, mouse fibroblasts (AID 2010); type: functional;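 note: cells exposed to compound for about 90 hours before reading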
[3] = Luminescence Cell-Based/Microorganism Confirmation at Dose of Inhibitors of Trypanosoma cruzi Infection. [Related pubchem assays: 1885, 1968 ]; type: functional
[4] = inhibitors of Trypanosoma cruzi host-cell infection, confirmation, beta-gal luminescence, NIH3T3 host cells (AID 2630); type: functional, cell-based; conditions: Mus musculus
[5] = Luminescence Cell-Based Secondary HTS screen to identify cytotoxic compounds of NIH3T3 cells. [Related pubchem assays: 1885, 1968 ]; type: functional
[6] = inhibitors of intracellular T. cruzi replication, confirmation, NIH3T3 host cells, beta-gal luminescence (AID 2044); type: functional, cell-based;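 note: intracellular parasites grown in NIH/3T3 mouse fibroblasts as host cells; luminescent beta-galactosidase reporter signal from transgenic T. cruzi replicating inside host cells; inhibitors lower the luminescence signal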
Cytochrome P450 1A2 = molecular target: T1, Cytochrome P450 1A2 (Homo sapiens, UniProt P05177);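 note: PubChem cytochrome P450 panel assay, CYP1A2 panel member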
T1 sequence (P05177 whole entry): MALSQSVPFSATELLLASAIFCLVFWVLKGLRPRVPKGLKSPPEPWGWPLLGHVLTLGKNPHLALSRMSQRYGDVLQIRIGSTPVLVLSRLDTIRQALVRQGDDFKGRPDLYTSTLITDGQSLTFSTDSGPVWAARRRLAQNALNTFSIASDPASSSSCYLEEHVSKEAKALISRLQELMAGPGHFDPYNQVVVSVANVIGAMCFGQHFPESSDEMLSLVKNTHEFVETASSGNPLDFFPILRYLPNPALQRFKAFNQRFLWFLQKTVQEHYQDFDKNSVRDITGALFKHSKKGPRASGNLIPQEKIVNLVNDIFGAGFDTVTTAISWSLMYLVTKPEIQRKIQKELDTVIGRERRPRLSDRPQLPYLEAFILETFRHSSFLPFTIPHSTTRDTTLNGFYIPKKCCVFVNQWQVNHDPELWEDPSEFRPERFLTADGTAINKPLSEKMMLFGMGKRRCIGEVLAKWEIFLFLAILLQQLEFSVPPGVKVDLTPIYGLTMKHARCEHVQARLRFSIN

Cytochrome P450 3A4 = Cytochrome P450 3A4 (Homo sapiens, UniProt P08684);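 note: CYP3A4 tested as one member of a cytochrome P450 panel screen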
Cytochrome P450 2C19 = Cytochrome P450 2C19 (Homo sapiens, UniProt P33261); assay: Cytochrome panel assay with activity outcomes. Panel member name: p450-cyp2c19 Compounds with AC50 equal or less than 10 uM are considered active; type: functional
Chain of Cytochrome P450 2C19 (P33261 whole entry): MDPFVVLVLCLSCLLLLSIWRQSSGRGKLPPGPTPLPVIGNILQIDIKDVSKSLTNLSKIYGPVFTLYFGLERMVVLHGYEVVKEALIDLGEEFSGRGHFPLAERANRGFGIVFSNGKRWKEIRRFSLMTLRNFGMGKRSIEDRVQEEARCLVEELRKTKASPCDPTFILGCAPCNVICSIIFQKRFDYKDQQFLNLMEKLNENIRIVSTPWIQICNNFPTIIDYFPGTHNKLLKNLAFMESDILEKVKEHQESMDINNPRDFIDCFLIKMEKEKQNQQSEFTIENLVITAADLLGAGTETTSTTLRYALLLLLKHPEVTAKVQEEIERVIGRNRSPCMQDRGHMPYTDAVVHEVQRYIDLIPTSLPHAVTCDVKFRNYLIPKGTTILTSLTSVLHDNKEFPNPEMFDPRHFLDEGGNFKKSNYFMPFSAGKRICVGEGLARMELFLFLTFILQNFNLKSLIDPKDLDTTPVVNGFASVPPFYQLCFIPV

Chain of Cytochrome P450 3A4 (P08684 whole entry): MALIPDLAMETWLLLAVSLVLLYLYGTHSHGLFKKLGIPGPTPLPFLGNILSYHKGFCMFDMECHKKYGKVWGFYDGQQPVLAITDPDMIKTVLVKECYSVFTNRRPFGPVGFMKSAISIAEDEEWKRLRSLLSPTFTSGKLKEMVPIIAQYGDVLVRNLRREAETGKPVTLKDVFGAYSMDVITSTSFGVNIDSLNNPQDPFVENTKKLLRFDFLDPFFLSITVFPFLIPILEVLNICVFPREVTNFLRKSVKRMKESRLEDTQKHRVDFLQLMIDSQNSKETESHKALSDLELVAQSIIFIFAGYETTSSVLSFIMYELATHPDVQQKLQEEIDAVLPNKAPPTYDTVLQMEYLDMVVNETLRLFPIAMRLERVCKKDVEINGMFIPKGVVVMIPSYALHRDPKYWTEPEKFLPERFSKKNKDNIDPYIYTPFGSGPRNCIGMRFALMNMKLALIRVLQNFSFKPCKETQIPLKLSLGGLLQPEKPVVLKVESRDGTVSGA
Chain of Potassium voltage-gated channel subfamily KQT member 2 (O88943 whole entry): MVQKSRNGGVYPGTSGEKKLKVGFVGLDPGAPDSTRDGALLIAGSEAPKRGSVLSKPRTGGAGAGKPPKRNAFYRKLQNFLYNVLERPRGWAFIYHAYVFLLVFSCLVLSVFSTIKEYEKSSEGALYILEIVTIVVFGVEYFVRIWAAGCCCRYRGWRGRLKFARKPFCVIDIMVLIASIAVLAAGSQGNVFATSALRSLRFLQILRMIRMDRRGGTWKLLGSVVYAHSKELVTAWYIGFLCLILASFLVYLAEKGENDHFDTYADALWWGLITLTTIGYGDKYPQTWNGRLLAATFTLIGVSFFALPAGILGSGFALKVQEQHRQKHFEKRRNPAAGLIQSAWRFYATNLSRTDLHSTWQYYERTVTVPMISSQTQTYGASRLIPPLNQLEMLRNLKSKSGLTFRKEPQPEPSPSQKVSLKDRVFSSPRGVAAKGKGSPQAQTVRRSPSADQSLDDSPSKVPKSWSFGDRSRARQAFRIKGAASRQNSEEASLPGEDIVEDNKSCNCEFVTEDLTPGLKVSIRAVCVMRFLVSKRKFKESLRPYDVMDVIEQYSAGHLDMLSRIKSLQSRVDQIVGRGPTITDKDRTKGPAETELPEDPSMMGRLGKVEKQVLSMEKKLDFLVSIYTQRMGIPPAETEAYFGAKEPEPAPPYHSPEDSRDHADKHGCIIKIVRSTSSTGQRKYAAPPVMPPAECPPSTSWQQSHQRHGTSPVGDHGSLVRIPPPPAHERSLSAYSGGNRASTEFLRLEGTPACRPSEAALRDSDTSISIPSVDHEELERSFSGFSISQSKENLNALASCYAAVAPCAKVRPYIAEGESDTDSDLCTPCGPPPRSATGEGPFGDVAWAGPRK

With CCc1ccc(NC(=O)C2CC3CCC2C3)cc1 (centres undefined) the EC50 [1] was 920 nM (active).

For COC(=O)N/N=C/c1ccc([N+](=O)[O-])o1, the EC50 [2] was > 60000 nM (not active), the EC50 [3] was 123 nM (active) and the EC50 [4] was 123 nM (active). For the same compound, the EC50 [5] was > 195000 nM (not active) and the EC50 [6] was 469 nM (active).

With O=C(O)CNC(=O)c1ccc([As](=O)(O)O)cc1 the AC50 (Cytochrome P450 1A2) was “inactive”, the AC50 (Cytochrome P450 3A4) was “inactive” and the AC50 (Cytochrome P450 2C19) was “inactive”.
